Square brackets hold non-standard residues; d marks the D form. Peptide text beside a SMILES is read from it.
Experiments:
[1] = test system: PKR−/− neurons; experiment: Neuronal apoptosis after Aβ42 stress in PKR−/− primary cortical neurons; format: cell-based, mouse
Experimental: To obtain primary cortical neuronal cultures, E15.5 mice embryos were dissected in PBS (Phosphate Buffered Saline) 6% glucose, on ice. Embryos cortices were minced into small pieces and treated with PBS glucose trypsin (Sigma Aldrich, Saint-Louis, USA) for 20 min at 37° C. Dissociated cortical cells were cultured in Neurobasal media complemented with B27, Glutamax and penicillin-streptomycin (Gibco). Neurons were cultured at 37° C., 5% CO2 on pre-coated with poly-L-lysin (Sigma Aldrich) petri dishes. Neurons were cultured to maturity (7 days) before use.
To induce […] stress 2 μM of Aβ1-42 (Thermo Fisher Scientific, Mass., USA) were used during 5 h on cortical neurons. Aβ42-1 inversed peptide (Thermo Fisher Scientific) was used as negative control. AP 1-42 and Aβ42-1 were dissolved in pure water and incubated at 37° C. for 48 h before use.
To inhibit JNK, cortical neurons were pre-treated with 10 μM of XG-104 1 h before cell-stress treatment.
For immunoblot analysis cells were lysed on ice in a lysis buffer containing […] NaPi pH 7.8, […] NaCl, 1% Triton, 0.5% DOC, 0.1% SDS, 10% glycerol, 0.1 μM calyculin A, 1 mM Na3VO4 and 1× of a protease inhibitor cocktail (Sigma Aldrich). Lysates were sonicated and centrifugated 10 min at 15000 g at 4° C. The supernatant protein concentration was determined with the Micro BCA protein assay kit (Thermo Scientific). Thirty micrograms of proteins were resolved on SDS-PAGE and transferred onto nitrocellulose membrane. After blocking with TBS 5% skim milk, the membranes were probed with primary antibodies to JNK full, c-Jun, PKR, eIF2α (Santa Cruz, Danvers, USA), pJNK (Millipore, Billerica, USA), phosphor eIF2a (Thermo Fisher Scientific), PARP and tubulin (Cell Signaling, Danvers, USA). IR Dyes 800 and 700 (Rockland Immunochemical Inc, Gilbertsville, USA) antibodies were used as secondary antibodies. Blots were reveled with Odyssey imaging system (LI-COR Biosciences, Lincoln, USA).
For caspase 3 activity analysis culture cell supernatants containing degenerating and dead neurons, and cell medium were collected in parallel of adhesive neurons lysis. Culture cell supernatants were centrifugated 10 min at 15000 g at 4° C. Pellets were then resuspended in lysis buffer and caspase 3 activity was measured by using the Caspase 3 Assay kit reagents and protocol (Abcam, Cambridge, UK).

[2] = biological target: T1, hJNK1 (Homo sapiens, UniProt P45983); experiment: AlphaScreen assay, inhibition of JNK1 phosphorylation of c-Jun substrate; format: biochemical; conditions: in comparison to L-TAT-IB1; FIG. 4 (JNK1, JNK2, JNK3 AlphaScreen)
T1 construct: His; purchased Upstate 14-327
T1 sequence (P45983 1-384 isoform P45983-2): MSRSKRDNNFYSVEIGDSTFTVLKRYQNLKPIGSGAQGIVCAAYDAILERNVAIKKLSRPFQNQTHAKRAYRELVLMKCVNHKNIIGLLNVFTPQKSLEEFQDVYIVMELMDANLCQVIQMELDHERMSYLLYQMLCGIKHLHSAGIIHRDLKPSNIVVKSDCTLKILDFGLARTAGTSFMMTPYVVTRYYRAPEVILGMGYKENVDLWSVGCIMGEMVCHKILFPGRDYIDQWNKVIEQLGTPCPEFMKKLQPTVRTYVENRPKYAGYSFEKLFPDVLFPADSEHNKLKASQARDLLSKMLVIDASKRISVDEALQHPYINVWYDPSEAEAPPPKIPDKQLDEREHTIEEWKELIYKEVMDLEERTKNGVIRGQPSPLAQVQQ
Experimental: In the following a standard operating procedure will be set forth describing how the Inhibitory efficacy of JNK inhibitors according to the present invention was measured. The method allows to measure in vitro, in a non radioactive standardized assay, the ability of a candidate compound to decrease the phosphorylation of the c-Jun specific substrate by JNK. Moreover, it will be illustrated how to determine the inhibitory effect (IC50) and the Ki of a chosen compound for JNK. […] And a person skilled in the art will certainly understand how to adapt the below methods for his specific purposes and needs.
AlphaScreen Reagent and Plate: • His-JNK1 (ref 14-327, Upstate, 10 μg in 100 μl: concentration: 2.2 μM) 5 nM final • His-JNK2 (ref 14-329, Upstate, 10 μg in 100 μl: concentration: 2 μM) 5 nM final • His-JNK3 (ref 14-501, Upstate, 10 μg in 100 μl: concentration: 1.88 μM) 5 nM final • Anti-Phospho-cJun (ref 06-828, Upstate, lot DAM1503356, concentration: 44.5 μM) 10 nM final • Biotin-cJun (29-67): • sequence: Biotin—[…] […]
The bioluminescent energy transfer was read on the Fusion Alpha Plate reader (Perkin Elmer). […]

[3] = PKR−/− neurons, 10 μM, vs Aβ42 treated PKR−/− neurons
[4] = dual inhibition of PKR and JNK, vs treated WT neurons

SMILES | decrease of caspase 3 activity [1, 3] | decrease of cleaved PARP expression level [1, 3] | decrease of cleaved caspase 3 expression level [1, 3] | decrease of PARP expression levels [1, 4] | decrease of caspase 3 activity [1, 4] | decrease of cleaved caspase 3 [1, 4] | inhibitory capacity [2]
CC(C)C[C@H](NC(=O)[C@H](CC(N)=O)NC(=O)[C@H](CC(C)C)NC(=O)[C@@H](NC(=O)[C@@H](C)NC(=O)[C@@H]1CCCN1C(=O)[C@H](CCCNC(=N)N)NC(=O)[C@@H](CCCCN)NC(=O)[C@@H]1CCCN1C(=O)[C@H](CCCNC(=N)N)NC(=O)[C@@H](CCCNC(=N)N)NC(=O)[C@H](CCCNC(=N)N)NC(=O)[C@H](CCCNC(=N)N)NC(=O)[C@H](CCC(N)=O)NC(=O)[C@@H](CCCNC(=N)N)NC(=O)[C@H](CCCNC(=N)N)NC(=O)[C@H](CCCCN)NC(=O)[C@H](CCCCN)NC(=O)[C@H](N)CCCNC(=N)N)[C@@H](C)O)C(=O)N[C@H](Cc1ccccc1)C(N)=O [SEQ ID NO: 172, rKKRrQRRrRPkRPaTLNLf] (H-[dR]KKR[dR]QRR[dR]RP[dK]RP[dA]TLNL[dF]-NH2; N-terminus assumed) | 61% | 86% | 42% | 93% | 87% | 83% | –
CC(C)C[C@@H](NC(=O)[C@@H](Cc1ccccc1)NC(=O)[C@H]1CCCN1C(=O)[C@@H](CCC(N)=O)NC(=O)[C@H](NC(=O)[C@H]1CCCN1C(=O)[C@@H](CCCNC(=N)N)NC(=O)[C@@H](CO)NC(=O)[C@@H](CCC(N)=O)NC(=O)[C@H](N)CC(=O)O)C(C)C)C(=O)N[C@H](CC(N)=O)C(=O)N[C@H](CC(C)C)C(=O)N[C@@H](C(=O)N[C@@H](C(=O)N1CCC[C@@H]1C(=O)N[C@H](CCCNC(=N)N)C(=O)N[C@H](CCCCN)C(=O)N1CCC[C@@H]1C(=O)N[C@H](CCCNC(=N)N)C(=O)N1CCC[C@@H]1C(=O)N1CCC[C@@H]1C(=O)N[C@H](CCCNC(=N)N)C(=O)N[C@H](CCCNC(=N)N)C(=O)N[C@H](CCCNC(=N)N)C(=O)N[C@H](CCC(N)=O)C(=O)N[C@H](CCCNC(=N)N)C(=O)N[C@H](CCCNC(=N)N)C(=O)N[C@H](CCCCN)C(=O)N[C@H](CCCCN)C(=O)N[C@H](CCCNC(=N)N)C(=O)NCC(N)=O)[C@H](C)O)[C@H](C)O [SEQ ID NO: 197, dqsrpvqpflnlttprkprpprrrqrrkkrg, reference compound] (H-[dD][dQ][dS][dR][dP][dV][dQ][dP][dF][dL][dN][dL][dT][dT][dP][dR][dK][dP][dR][dP][dP][dR][dR][dR][dQ][dR][dR][dK][dK][dR]G-NH2) | – | – | – | – | – | – | significant decrease in inhibitory capacity

From patent US11331364B2, “Use for JNK inhibitor molecules for treatment of various diseases” (Xigen Inflammation Ltd., priority 2014, dated 2022)
